Laboratory results: patent publication US9808003B2, “Herbicidally active 2-(substituted-phenyl)-cyclopentane-1,3-dione compounds and derivatives thereof” (Syngenta Limited, priority 2013, dated 2017)

Key:
Test in all cases: Test 1A glasshouse assay, post-emergence herbicidal activity
Assay type in all cases: in vivo
[1] = test system: Alopecurus myosuroides (ALOMY); conditions: Alopecurus myosuroides, 312 h, application rate 250 g/ha, 13 days after application, visual (100%=total damage; 0%=no damage), read-out: Post-emergence Herbicidal Activity (% Phytotoxicity) ALOMY
Protocol: (§1) Seeds of a variety of test species were sown in standard soil in pots. After cultivation for one day (pre-emergence) or after 8 days cultivation (post-emergence) under controlled conditions in a glasshouse (at 24/16° C., day/night; 14 hours light; 65% humidity), the plants were sprayed with an aqueous spray solution derived from the formulation of the technical active ingredient in acetone/water (50:50) solution containing 0.5% Tween 20 (polyoxyethelyene sorbitan monolaurate, CAS RN 9005-64-5). The test plants were then grown under controlled conditions in a glasshouse (at 24/16° C., day/night; 14 hours light; 65% humidity) and watered twice daily. 13 days after application of the test herbicide, for pre- and post-emergence, the test was evaluated visually for percentage phytotoxicity to the plant (where 100%=total damage to plant; 0%=no damage to plant).
(§2) Lolium perenne (LOLPE), Alopecurus myosuroides (ALOMY), Echinochloa crus-galli (ECHCG), and Avena fatua (AVEFA); these are all grassy monocotyledonous weeds.

[2] = test system: Lolium perenne (LOLPE); conditions: Lolium perenne, 312 h, application rate 250 g/ha, 13 days after application, visual (100%=total damage; 0%=no damage), read-out: Post-emergence Herbicidal Activity (% Phytotoxicity) LOLPE
Protocol: as §1, §2

[3] = test system: Avena fatua (AVEFA); conditions: Avena fatua, 312 h, application rate 250 g/ha, 13 days after application, visual (100%=total damage; 0%=no damage), read-out: Post-emergence Herbicidal Activity (% Phytotoxicity) AVEFA
Protocol: as §1, §2

[4] = test system: Echinochloa crus-galli (ECHCG); conditions: Echinochloa crus-galli, 312 h, application rate 250 g/ha, 13 days after application, visual (100%=total damage; 0%=no damage), read-out: Post-emergence Herbicidal Activity (% Phytotoxicity) ECHCG
Protocol: as §1, §2

Compound	pest or weed control at 250 g/ha [1] [%]	pest or weed control at 250 g/ha [2] [%]	pest or weed control at 250 g/ha [3] [%]	pest or weed control at 250 g/ha [4] [%]
Cc1cc(C)c(C2C(=O)CC(CCNC(=O)c3ccsc3)C2=O)c(C)c1 (centres unmarked) [Compound A4]	70	80	60	100
Cc1cc(C)c(C2C(=O)CC(CCNC(=O)c3cccs3)C2=O)c(C)c1 (centres unmarked) [Compound A5]	50	70	30	60
Cc1cc(C)c(C2C(=O)CC(CCNC(=O)c3ccc(Cl)c(Cl)c3)C2=O)c(C)c1 (centres unmarked) [Compound A6]	30	90	60	90
Cc1cc(C)c(C2C(=O)CC(CCNC(=O)c3ccco3)C2=O)c(C)c1 (centres unmarked) [Compound A7]	60	60	50	90
Cc1cc(C)c(C2C(=O)CC(CCNC(=O)C3CCC3)C2=O)c(C)c1 (centres unmarked) [Compound A8]	60	90	70	80
Cc1cc(C)c(C2C(=O)CC(CCNC(=O)C3CCCC3)C2=O)c(C)c1 (centres unmarked) [Compound A9]	60	80	50	70
CCC(=O)NCCC1CC(=O)C(c2c(C)cc(C)cc2C)C1=O (centres unmarked) [Compound A10]	60	70	70	50
COc1ccccc1C(=O)NCCC1CC(=O)C(c2c(C)cc(C)cc2C)C1=O (centres unmarked) [Compound A11]	70	100	70	100
Cc1cc(C)c(C2C(=O)CC(CCNC(=O)c3ccc(C(F)(F)F)cc3)C2=O)c(C)c1 (centres unmarked) [Compound A12]	80	100	100	100
Cc1cc(C)c(C2C(=O)CC(CCNC(=O)c3ccc(F)c(Cl)c3)C2=O)c(C)c1 (centres unmarked) [Compound A14]	60	70	70	100
Cc1cc(C)c(C2C(=O)CC(CCNC(=O)c3ccc(OC(F)(F)F)cc3)C2=O)c(C)c1 (centres unmarked) [Compound A15]	60	90	90	100
Cc1cc(C)c(C2C(=O)CC(CCNC(=O)c3ccoc3)C2=O)c(C)c1 (centres unmarked) [Compound A16]	60	60	50	50
Cc1cc(C)c(C2C(=O)CC(CCNC(=O)c3ccc(F)cc3F)C2=O)c(C)c1 (centres unmarked) [Compound A17]	80	100	90	100
COc1ccc(C(=O)NCCC2CC(=O)C(c3c(C)cc(C)cc3C)C2=O)cc1 (centres unmarked) [Compound A18]	60	90	80	100
Cc1cc(C)c(C2C(=O)CC(CCNC(=O)c3ccccc3Cl)C2=O)c(C)c1 (centres unmarked) [Compound A20]	70	100	70	100
CCC(CC1CC(=O)C(c2c(C)cc(C)cc2C)C1=O)NC(=O)c1ccc(F)cc1 (centres unmarked) [Compound A21]	90	100	90	100
Cc1cc(C)c(C2C(=O)CC(CCNC(=O)c3ccc(Cl)nc3)C2=O)c(C)c1 (centres unmarked) [Compound A22]	70	80	80	80
